Common to all, as to details: Meleagris gallopavo
Assay [1] deals with T1, ADP-ribosyltransferase (Homo sapiens) (UniProt P52961).
T1 sequence (whole entry): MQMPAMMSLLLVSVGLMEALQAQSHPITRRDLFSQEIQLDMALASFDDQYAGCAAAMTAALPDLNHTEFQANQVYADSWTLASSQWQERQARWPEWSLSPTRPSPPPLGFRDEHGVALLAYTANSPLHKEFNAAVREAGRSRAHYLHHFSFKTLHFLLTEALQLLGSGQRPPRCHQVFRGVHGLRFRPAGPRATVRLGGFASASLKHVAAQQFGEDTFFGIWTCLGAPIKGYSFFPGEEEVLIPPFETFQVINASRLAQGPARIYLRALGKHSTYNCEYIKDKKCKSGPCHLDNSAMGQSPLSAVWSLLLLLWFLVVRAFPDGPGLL
In words: Inhibition of ADP-ribosyltransferase 1 that catalyze ADP-ribosyltransferase was measured at 1000 uM concentration.

Assay [2] has as its target T1, ADP-ribosyltransferase (Homo sapiens). Nature of the assay: Inhibition of ADP-ribosyltransferase 1 that catalyze ADP-ribosyltransferase was measured at 100 uM concentration.
The target is the same in assay [3]. Nature of the assay: Inhibition of ADP-ribosyltransferase 1 that catalyze ADP-ribosyltransferase was measured at 0 uM concentration.

Our source for the Activity values is ChEMBL document CHEMBL1128694, “Specific inhibition of poly(ADP-ribose) glycohydrolase by adenosine diphosphate (hydroxymethyl)pyrrolidinediol” (J Med Chem, 1995).

The structures appear in SMILES notation.

`Nc1ncnc2c1ncn2[C@@H]1O[C@H](COP(=O)(O)OP(=O)(O)OC[C@H]2NC[C@H](O)[C@@H]2O)[C@@H](O)[C@H]1O`: the Activity was 0.05 units/assay in assay [1], 0.07 units/assay in assay [2] and 0.06 units/assay in assay [3].
